This passage reports Kd, DC50 and EC50 results from US20250325677A1, “STAT6 DEGRADERS” (Gilead Sciences, Inc., priority 2024, published 2025).

The target of assay [1] is T1, STAT6 (Homo sapiens (Human), UniProt P42226). Nature of the assay: Surface plasmon resonance assay. The assay is classed as binding. The following applies: truncated human STAT6 aa122-658, 25° C.; read-out: STAT6 SPR Kd. The protocol:
Surface Plasmon Resonance Assay
SPR was used to confirm and quantify binding of compounds to human STAT6. Biacore instruments from the 8K-series (Cytiva) were used, and measurements were performed at 25° C. Human STAT6 (truncated, aa122-658, with N-terminal His-tag, expressed in insect cells) was immobilized in the active flow cells on a CM5 chip using amine-coupling (default settings) at 10 μg/ml in 10 mM acetate buffer pH 5.5, at a contact time of 120-420 sec. and a flow rate of 10 μl/min. Reference flow cells were deactivated using blank immobilization. PBS-P+(Cytiva) supplemented with 2% DMSO was used as running buffer, and solvent correction was applied. Compounds were tested by multi-cycle kinetics injections using a contact time of 60 sec., dissociation time of up to 300 sec., and a flow rate of 30 μl/min.
Solvent-corrected, reference-subtracted and blank-corrected data was processed and binding isotherms were fitted according to a single report point from each sensorgram (Standard: Late binding (5 sec. before injection end); alternative: Earlier report point according to binding profile). Data fitting was done both with unfixed Rmax and with Rmax fixed to the theoretical value* assuming 1:1 binding to allow processing of data from both weak and strong binders as well as to evaluate binding stoichiometry.
Positive controls were run at the beginning, during, and at the end of the screen to evaluate surface activity. Generally surface activity was only affected to a minor degree, and no corrections were applied. • Equation for calculation of the theoretical Rmax (Theoretical Rmax=(MW Analyte/MW Ligand)×immobilization level).
The sensorgrams for Examples 3e5, 3t4, and 3p1 are shown in FIG. 1 (where RU is plotted vs. time in seconds; dotted lines/points were excluded from the analysis due to effects from non-specific binding)).
Target sequence in this assay (P42226 122-658): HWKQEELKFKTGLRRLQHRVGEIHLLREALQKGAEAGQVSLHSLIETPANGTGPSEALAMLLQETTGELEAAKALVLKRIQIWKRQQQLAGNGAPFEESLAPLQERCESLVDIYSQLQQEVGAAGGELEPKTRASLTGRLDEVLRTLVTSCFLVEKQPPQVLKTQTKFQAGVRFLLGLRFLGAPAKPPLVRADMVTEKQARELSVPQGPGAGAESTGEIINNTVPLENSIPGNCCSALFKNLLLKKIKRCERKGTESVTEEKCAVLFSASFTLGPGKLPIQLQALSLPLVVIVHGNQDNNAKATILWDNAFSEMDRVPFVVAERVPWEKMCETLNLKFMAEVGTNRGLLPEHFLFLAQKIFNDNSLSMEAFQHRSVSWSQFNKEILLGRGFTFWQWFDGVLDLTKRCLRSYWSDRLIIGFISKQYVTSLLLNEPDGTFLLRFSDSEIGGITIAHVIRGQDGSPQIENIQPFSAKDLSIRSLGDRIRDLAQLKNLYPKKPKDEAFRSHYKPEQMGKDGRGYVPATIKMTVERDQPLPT
(In general: In SPR one partner is held on a chip, and binding of the other changes the refractive index at the surface.)

Assay [2] concerns the target T1, STAT6. In words: STAT6 degrader assay (HiBiT, HeLa LgBiT clone 4.14). It counts as cell-based. The following applies: HeLa LgBiT clone 4.14, 4-24 h; geometric mean; given for compounds with >80% Emax; read-out: STAT6 degradation DC50. In outline:
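DC50 (nM) comes from luminescence of non-degraded STAT6 read 0.5 h after Nano-GLO addition, following 4-24 h compound exposure at 37° C. Cells were HeLa clone 4.14 expressing LgBiT with a CRISPR HiBiT tag on endogenous STAT6; 50 μM terfenadine set full degradation.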
Target sequence in this assay (P42226 whole entry, the tested form may be a part): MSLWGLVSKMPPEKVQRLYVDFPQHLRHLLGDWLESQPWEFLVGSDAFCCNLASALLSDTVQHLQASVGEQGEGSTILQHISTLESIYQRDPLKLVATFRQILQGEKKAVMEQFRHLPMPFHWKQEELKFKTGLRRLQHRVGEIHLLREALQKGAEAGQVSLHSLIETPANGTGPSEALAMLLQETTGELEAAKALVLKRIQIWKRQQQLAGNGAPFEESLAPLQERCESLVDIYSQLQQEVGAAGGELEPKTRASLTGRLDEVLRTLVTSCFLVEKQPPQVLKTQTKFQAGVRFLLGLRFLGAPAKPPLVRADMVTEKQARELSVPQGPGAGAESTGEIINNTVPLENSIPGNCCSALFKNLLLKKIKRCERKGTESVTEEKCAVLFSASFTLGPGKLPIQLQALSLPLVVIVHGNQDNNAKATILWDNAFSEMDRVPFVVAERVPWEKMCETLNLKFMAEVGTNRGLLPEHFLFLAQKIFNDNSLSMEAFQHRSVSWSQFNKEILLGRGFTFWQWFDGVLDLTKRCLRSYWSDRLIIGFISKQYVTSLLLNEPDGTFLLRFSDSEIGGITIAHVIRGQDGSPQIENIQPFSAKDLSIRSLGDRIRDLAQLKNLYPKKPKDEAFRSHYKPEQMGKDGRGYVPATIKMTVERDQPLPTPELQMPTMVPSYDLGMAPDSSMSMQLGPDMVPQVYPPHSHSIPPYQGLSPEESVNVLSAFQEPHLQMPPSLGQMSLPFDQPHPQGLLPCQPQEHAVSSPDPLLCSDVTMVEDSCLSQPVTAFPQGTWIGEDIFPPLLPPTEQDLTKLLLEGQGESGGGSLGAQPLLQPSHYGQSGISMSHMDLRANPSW
For orientation: With HiBiT, luminescence reflects the tagged protein that the partner subunit can reach.

The test system of the next assay is eotaxin-3 release. Nature of the assay: Human whole blood eotaxin-3 assay (IL-4 stimulated). It counts as cell-based. The following applies: human whole blood, IL-4 0.4 nM, 48 hours; geometric mean; given for compounds with >80% Emax; read-out: Eotaxin-3 EC50. In outline:
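Human whole blood was preincubated with compound for 120 min at 37 °C, then stimulated with recombinant human IL-4 (E. coli) at 0.4 nM final for 48 h. Inhibition of eotaxin-3 release gave EC50 values.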

Turning to `Cn1c(CN2CCC(c3ccc(C(=O)N4CCC(CN5CCN(Cc6ccc7c(c6)n(C6CC6)c(=O)n7C6CCC(=O)NC6=O)CC5)CC4)cc3)CC2)cc2c(-c3ccc(N)nc3)ccnc21` (stereo not shown) [Example 3e5, 3-(5-((4-((1-(4-(1-((4-(6-aminopyridin-3-yl)-1-methyl-1H-pyrrolo[2,3-b]pyridin-2-yl)methyl)piperidin-4-yl)benzoyl)piperidin-4-yl)methyl)piperazin-1-yl)methyl)-3-cyclopropyl-2-oxo-2,3-dihydro-1H-benzo[d]imidazol-1-yl)piperidine-2,6-dione], the Kd (in general, the free concentration of one partner at which half of the binding sites on the other are occupied at equilibrium, for simple one-to-one binding) at STAT6 [1] was 104 nM. In addition, on STAT6 [2], the 50% degradation concentration (DC50) (commonly the concentration at which degradation of the target reaches its halfway point) is 5.4 nM.

For `Cn1c(CN2CCC(c3ccc(-c4nnc5ccc(N6CCC(CN7CCN(Cc8ccc9c(c8)n(C)c(=O)n9C8CCC(=O)NC8=O)CC7)CC6)nn45)cc3)CC2)cc2c(-c3ccc(N)nc3)ccnc21` (stereo not shown) [Example 3t4, 3-(5-((4-((1-(3-(4-(1-((4-(6-aminopyridin-3-yl)-1-methyl-1H-pyrrolo[2,3-b]pyridin-2-yl)methyl)-piperidin-4-yl)phenyl)-[1,2,4]triazolo[4,3-b]pyridazin-6-yl)piperidin-4-yl)methyl)piperazin-1-yl)methyl)-3-methyl-2-oxo-2,3-dihydro-1H-benzo[d]imidazol-1-yl)piperidine-2,6-dione], the Kd at STAT6 [1] stood at 37.8 nM. Further, the 50% degradation concentration (DC50) at STAT6 [2] amounted to 0.1 nM.

In the case of `CN(C(=O)c1ccc(C2CCN(Cc3cc4c(-c5ccc(N)nc5)ccnc4n3C)CC2)cc1)c1ccc(C2CCN(Cc3ccc4c(c3)n(C)c(=O)n4C3CCC(=O)NC3=O)CC2)cc1` (stereo not shown) [Example 3p1, 4-(1-((4-(6-aminopyridin-3-yl)-1-methyl-1H-pyrrolo[2,3-b]pyridin-2-yl)methyl)piperidin-4-yl)-N-(4-(1-((1-(2,6-dioxopiperidin-3-yl)-3-methyl-2-oxo-2,3-dihydro-1H-benzo[d]imidazol-5-yl)methyl)-piperidin-4-yl)phenyl)-N-methylbenzamide], the EC50 (in general, the concentration that produces a half-maximal response) in the assay on eotaxin-3 release amounted to 1 nM. Besides, the dissociation constant Kd at STAT6 [1] amounted to 11.4 nM. The 50% degradation concentration (DC50) on STAT6 [2] was 0.1 nM.

Consider `C[C@@H]1CN(Cc2ccc3c(c2)n(C)c(=O)n3C2CCC(=O)NC2=O)C[C@H](C)N1CC1CCN(C(=O)c2ccc(C3CCN([C@@H](C)c4cc5c(-c6ccc(N)nc6)ccnc5n4C)CC3)cc2)CC1` (stereo partly drawn) [Example 3e18, 3-(5-((4-((1-(4-(1-((S)-1-(4-(6-aminopyridin-3-yl)-1-methyl-1H-pyrrolo[2,3-b]pyridin-2-yl)ethyl)-piperidin-4-yl)benzoyl)piperidin-4-yl)methyl)-3,5-cis-dimethylpiperazin-1-yl)methyl)-3-methyl-2-oxo-2,3-dihydro-1H-benzo[d]imidazol-1-yl)piperidine-2,6-dione], for which the concentration giving a half-maximal response (EC50) in the assay on eotaxin-3 release was found to be 5.5 nM. In addition, the DC50 on STAT6 [2] stood at 1.4 nM.

Consider `CN(C(=O)c1ccc(C2CCN(Cc3cc4c(-c5ccc(N)nc5)ccnc4n3C)CC2)cc1)c1ccc(C2CCN(Cc3ccc4c(c3)n(C)c(=O)n4C3CCC(=O)NC3=O)CC2(F)F)cc1` (stereo not shown) [Example 3p2, 4-(1-((4-(6-aminopyridin-3-yl)-1-methyl-1H-pyrrolo[2,3-b]pyridin-2-yl)methyl)piperidin-4-yl)-N-(4-(1-((1-(2,6-dioxopiperidin-3-yl)-3-methyl-2-oxo-2,3-dihydro-1H-benzo[d]imidazol-5-yl)methyl)-3,3-difluoropiperidin-4-yl)phenyl)-N-methylbenzamide], for which the half-maximal effective concentration (EC50) in the assay on eotaxin-3 release is 17 nM. Besides, the DC50 at STAT6 [2] was determined as 0.8 nM.

As to `C[C@H]1CN(Cc2ccc3c(c2)n(C)c(=O)n3C2CCC(=O)NC2=O)CCN1CC1CCN(C(=O)c2ccc(C3CCN([C@@H](C)c4cc5c(-c6ccc(NCCO)nc6)ccnc5n4C)CC3)cc2)CC1` (stereo partly drawn) [Example 3e40, 3-(5-(((S)-4-((1-(4-(1-((S)-1-(4-(6-((2-hydroxyethyl)amino)pyridin-3-yl)-1-methyl-1H-pyrrolo[2,3-b]pyridin-2-yl)ethyl)piperidin-4-yl)benzoyl)piperidin-4-yl)methyl)-3-methylpiperazin-1-yl)methyl)-3-methyl-2-oxo-2,3-dihydro-1H-benzo[d]imidazol-1-yl)piperidine-2,6-dione], in the assay with eotaxin-3 release, the half-maximal effective concentration (EC50) came to 3.8 nM. In addition, the DC50 on STAT6 [2] turned out to be 0.5 nM.

As to `C[C@H]1CN(Cc2ccc3c(c2)n(C)c(=O)n3C2CCC(=O)NC2=O)CCN1CC1CCN(C(=O)c2ccc(C3CCN([C@@H](C)c4cc5c(-c6ccc(N)nc6C#N)ccnc5n4C)CC3)cc2)CC1` (stereo partly drawn) [Example 3e55, 6-amino-3-(2-((1S)-1-(4-(4-(4-(((2S)-4-((1-(2,6-dioxopiperidin-3-yl)-3-methyl-2-oxo-2,3-dihydro-1H-benzo[d]imidazol-5-yl)methyl)-2-methylpiperazin-1-yl)methyl)piperidine-1-carbonyl)phenyl)-piperidin-1-yl)ethyl)-1-methyl-1H-pyrrolo[2,3-b]pyridin-4-yl)picolinonitrile], the half-maximal effective concentration (EC50) with eotaxin-3 release worked out at 1.5 nM. In addition, the DC50 on STAT6 [2] was 0.5 nM.

For `CNc1ccc(-c2ccnc3c2cc([C@H](C)N2CCC(c4ccc(C(=O)N5CCC(CN6CCN(Cc7ccc8c(c7)n(C7CC7)c(=O)n8[C@H]7CCC(=O)NC7=O)C[C@@H]6C)CC5)cc4)CC2)n3C)cn1` (single isomer, unassigned) [Example 3h26], in the assay with eotaxin-3 release, the EC50 was found to be 3.1 nM. The DC50 on STAT6 [2] was found to be 1.4 nM.

Consider `C[C@@H](c1cc2c(-c3ccc(N)nc3)ccnc2n1C)N1CCC(c2ccc(C(=O)N3CCC(CN4CCN(Cc5ccc6c(c5)n(CC5CC5)c(=O)n6C5CCC(=O)NC5=O)CC4)CC3)cc2)CC1` (stereo partly drawn) [Example 3e53, 3-(5-((4-((1-(4-(1-((S)-1-(4-(6-aminopyridin-3-yl)-1-methyl-1H-pyrrolo[2,3-b]pyridin-2-yl)ethyl)piperidin-4-yl)benzoyl)piperidin-4-yl)methyl)piperazin-1-yl)methyl)-3-(cyclopropylmethyl)-2-oxo-2,3-dihydro-1H-benzo[d]imidazol-1-yl)piperidine-2,6-dione], for which the EC50 in the assay with eotaxin-3 release is 7.5 nM. Also, at STAT6 [2], the half-maximal degradation concentration (DC50) amounted to 1.9 nM.
